Measurements as given in patent publication US8557864B2, “Agent having neurotrophic factor-like activity” (Nagoya Industrial Science Research Institute, priority 2007, dated 2013).

Tests used:
Format in all cases: in vivo
[1] = system: mice under chronic mild stress; experiment: Burying the glass-marbles test, compound given at the same time as stress; settings: 20, 100 and 500 μg/kg intraperitoneally once per day with stress; stressed 3 week- and 1 week-administration groups
Procedure: (§1) Mice under established chronic mild stress (hereinafter referred to as “stress”) were used for a depression and anxiety disorder-like model animal. Stress was applied as follows. 7-week-old male ddY strain mice fed in one cage for 4 mice were used and first subjected to forced swimming for 15 minutes. Then, the mice were fed in a sloped cage for 2 days, and then rested in a normal cage for 1 day. Then, the mice were fed in a dirt cage moisturized with 200 mL of water for 1 day and then rested in a normal cage for 1 day. Then, the mice were fed in a rotational cage that rotated at 180 rpm for 1 day, and then rested in a normal cage for 1 day. […] For 0 μg/kg administration examples of controls, a phosphoric acid buffer containing 0.1% DMSO (controls were expressed as “PBS” or “0 μg/kg” in the figure shown below) was administered in an amount of 0.25 mL to each of a stressed example and a non-stressed example. […]
Tips were bedded so as to have a height of 5 cm in a box with […] and 25 glass marbles (1.6 cm in diameter) were placed thereon at 5 cm-interval and behaviors of mice were observed. […] Since a mouse under stress having an anxiety symptom (condition) takes such a behavior as burying glass marbles, a level of the anxiety symptom can be evaluated from the number of buried glass marbles.

[2] = system: mice under chronic mild stress; experiment: Elevated plus maze test, compound given at the same time as stress; settings: 20, 100 and 500 μg/kg intraperitoneally with stress, 3 week and 1 week groups
Procedure: as §1
In this test, an anxiety level can be evaluated from the time for being the open arm, and a behavior amount can be evaluated from the number of times of entering the closed arm. From the evaluations, when a mouse has an anxiety symptom (condition), the time for being in the open arm […], and thus, a level of the anxiety symptom (condition) can be evaluated from the length of the time. […]

[3] = system: mice under chronic mild stress; experiment: Burying the glass-marbles test after completion of stress; settings: 20 μg/kg and 100 μg/kg; 1 week- and 2 week-administration groups after completion of stress
Procedure: Tips were bedded so as to have a height of 5 cm in a box with […] and 25 glass marbles (1.6 cm in diameter) were placed thereon at 5 cm-interval and behaviors of mice were observed. The number of buried glass marbles was found by counting each glass marble that was buried in ⅔ or more from visual observation from just above after 15 minutes as one count. The test was performed for 3 hours. Since a mouse under stress having an anxiety symptom (condition) takes such a behavior as burying glass marbles, a level of the anxiety symptom can be evaluated from the number of buried glass marbles.
Example 2 is a behavior test in which the compound 8 was administered to a mouse as well as stress was applied and a suppression effect of the compound 8 on depressive and anxiety symptoms of the mouse was examined. On the other hand, the present example is a behavior test in which only stress was applied for 3 weeks without administering the compound 8 and stress was completed and a therapeutic effect of the compound 8 on depressive and anxiety symptoms of a mouse after removing stress was examined. Stress was applied to a mouse in the same manner as in Example 2. […]

CCCCCCC/C=C/C(=O)OCC [Compound 8, trans-2-decenoic acid ethyl ester]
no significant difference: number of buried glass marbles, stressed vs non-stressed example [1] | time for being in open arm, stressed vs non-stressed example [2] | number of times of entering closed arm (behavior amount) ([2]; vs control (PBS) and stressed vs non-stressed) | number of buried glass marbles, stressed vs non-stressed example [3]
